Results taken from paper PMC5362750, “Discovery of Potent, Selective, and Orally Bioavailable Small-Molecule Modulators of the Mediator Complex-Associated Kinases CDK8 and CDK19” (Journal of Medicinal Chemistry, 2016).
In brackets after ≈: the same amount, converted by molar mass.

Legend:
HIPK2 = target: T1, HIPK2 (Homo sapiens, UniProt Q9H2X6); test: Kinase panel (Millipore); type: biochemical; conditions: 1 µM, ATP at Km
T1 construct: purchased Millipore (KinaseProfiler) kinase panel

FYN = FYN (Homo sapiens, UniProt P06241); test: Kinase panel (Millipore); type: biochemical; conditions: 1 µM, ATP at Km
FYN, sequence (P06241 whole entry): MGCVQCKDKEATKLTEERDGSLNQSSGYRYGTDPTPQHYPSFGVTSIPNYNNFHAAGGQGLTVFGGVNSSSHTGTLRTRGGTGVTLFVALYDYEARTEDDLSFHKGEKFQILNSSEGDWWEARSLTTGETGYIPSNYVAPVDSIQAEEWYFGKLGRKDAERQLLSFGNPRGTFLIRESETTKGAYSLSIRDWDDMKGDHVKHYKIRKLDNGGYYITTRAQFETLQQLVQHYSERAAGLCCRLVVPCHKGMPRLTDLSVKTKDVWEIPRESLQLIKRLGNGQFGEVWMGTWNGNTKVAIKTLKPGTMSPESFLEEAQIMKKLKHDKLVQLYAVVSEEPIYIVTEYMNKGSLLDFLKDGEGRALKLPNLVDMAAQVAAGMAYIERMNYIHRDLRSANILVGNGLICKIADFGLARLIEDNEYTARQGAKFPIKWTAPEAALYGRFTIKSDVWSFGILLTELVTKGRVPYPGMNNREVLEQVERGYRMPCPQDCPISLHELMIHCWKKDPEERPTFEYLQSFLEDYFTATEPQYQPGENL

ETB (h) = target: T2, ETB (h) (Homo sapiens, UniProt P24530); test: CEREP binding assay; conditions: agonist radioligand, read-out: % Inhibition of Control Specific Binding
T2 construct: purchased Millipore (KinaseProfiler) kinase panel

[1] = test system: Ca2+ channel (L, diltiazem site) (benzothiazepines); conditions: 10 µM, antagonist radioligand
PASK = target: T3, PASK (Homo sapiens, UniProt Q96RG2); test: Kinase panel (Millipore); type: biochemical; conditions: 1 µM, ATP at Km
T3 construct: purchased Millipore (KinaseProfiler) kinase panel

MSK1 = MSK1 (Homo sapiens, UniProt O75582); test: Kinase panel (Millipore); type: biochemical; conditions: 1 µM, ATP at Km
MSK1, sequence (O75582 whole entry): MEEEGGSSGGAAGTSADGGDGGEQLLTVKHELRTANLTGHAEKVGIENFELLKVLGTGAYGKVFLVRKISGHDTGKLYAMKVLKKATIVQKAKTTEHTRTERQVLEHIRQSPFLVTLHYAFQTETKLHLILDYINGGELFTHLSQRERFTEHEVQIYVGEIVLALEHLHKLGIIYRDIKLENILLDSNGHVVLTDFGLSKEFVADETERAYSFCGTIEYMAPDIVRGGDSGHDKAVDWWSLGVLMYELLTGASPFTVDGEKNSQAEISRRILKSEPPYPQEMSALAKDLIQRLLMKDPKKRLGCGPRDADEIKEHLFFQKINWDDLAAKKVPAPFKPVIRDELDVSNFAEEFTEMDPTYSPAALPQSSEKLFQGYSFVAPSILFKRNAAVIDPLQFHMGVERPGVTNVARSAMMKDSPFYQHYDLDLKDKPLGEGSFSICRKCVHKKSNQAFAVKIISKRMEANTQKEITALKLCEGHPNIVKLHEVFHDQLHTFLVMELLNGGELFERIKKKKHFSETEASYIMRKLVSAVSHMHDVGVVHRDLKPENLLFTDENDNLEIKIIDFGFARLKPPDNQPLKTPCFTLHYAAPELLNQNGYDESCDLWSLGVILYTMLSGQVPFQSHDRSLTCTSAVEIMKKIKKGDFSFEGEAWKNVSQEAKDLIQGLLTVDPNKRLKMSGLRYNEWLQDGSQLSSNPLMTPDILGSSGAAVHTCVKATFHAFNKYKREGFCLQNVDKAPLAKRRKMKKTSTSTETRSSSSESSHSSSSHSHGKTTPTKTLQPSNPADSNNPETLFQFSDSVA

SGK2 = target: T4, SGK2 (Homo sapiens, UniProt Q9HBY8); test: Kinase panel (Millipore); type: biochemical; conditions: 1 µM, ATP at Km
T4 construct: purchased Millipore (KinaseProfiler) kinase panel

EPHA5 = target: T5, EPHA5 (Homo sapiens, UniProt P54756); test: Kinase panel (Millipore); type: biochemical; conditions: 1 µM, ATP at Km
T5 construct: purchased Millipore (KinaseProfiler) kinase panel
T5 sequence (P54756 25-1037): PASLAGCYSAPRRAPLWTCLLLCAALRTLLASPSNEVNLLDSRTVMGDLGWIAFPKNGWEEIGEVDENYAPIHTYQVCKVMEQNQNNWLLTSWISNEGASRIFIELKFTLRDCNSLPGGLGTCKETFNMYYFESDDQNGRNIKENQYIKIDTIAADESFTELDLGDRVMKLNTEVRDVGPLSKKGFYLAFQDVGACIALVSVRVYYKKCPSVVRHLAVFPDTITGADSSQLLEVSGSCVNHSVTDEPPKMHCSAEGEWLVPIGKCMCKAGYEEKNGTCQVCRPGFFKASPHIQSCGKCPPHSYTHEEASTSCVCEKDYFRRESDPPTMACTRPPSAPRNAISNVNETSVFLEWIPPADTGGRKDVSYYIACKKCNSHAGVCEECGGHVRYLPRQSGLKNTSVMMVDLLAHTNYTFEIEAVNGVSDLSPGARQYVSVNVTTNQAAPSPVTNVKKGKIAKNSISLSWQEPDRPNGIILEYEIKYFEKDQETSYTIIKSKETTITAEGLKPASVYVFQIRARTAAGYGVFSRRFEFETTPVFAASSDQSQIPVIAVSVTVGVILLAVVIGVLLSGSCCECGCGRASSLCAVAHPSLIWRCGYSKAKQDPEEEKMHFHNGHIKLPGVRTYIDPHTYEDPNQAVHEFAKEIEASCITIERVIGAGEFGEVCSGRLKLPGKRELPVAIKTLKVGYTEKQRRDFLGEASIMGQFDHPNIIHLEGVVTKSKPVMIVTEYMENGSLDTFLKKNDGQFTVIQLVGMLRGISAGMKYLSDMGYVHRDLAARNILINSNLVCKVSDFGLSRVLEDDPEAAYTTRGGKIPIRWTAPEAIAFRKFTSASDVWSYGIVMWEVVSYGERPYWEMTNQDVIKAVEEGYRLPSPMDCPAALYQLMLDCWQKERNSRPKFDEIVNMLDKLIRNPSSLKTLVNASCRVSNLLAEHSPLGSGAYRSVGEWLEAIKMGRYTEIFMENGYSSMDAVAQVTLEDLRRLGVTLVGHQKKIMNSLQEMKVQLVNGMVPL

PKBALPHA = PKBALPHA (Homo sapiens, UniProt P31749); test: Kinase panel (Millipore); type: biochemical; conditions: 1 µM, ATP at Km
EPHB1 = target: T6, EPHB1 (Homo sapiens, UniProt P54762); test: Kinase panel (Millipore); type: biochemical; conditions: 1 µM, ATP at Km
T6 construct: purchased Millipore (KinaseProfiler) kinase panel

MSSK1 = target: T7, MSSK1 (Homo sapiens, UniProt Q9UPE1); test: Kinase panel (Millipore); type: biochemical; conditions: 1 µM, ATP at Km
T7 construct: purchased Millipore (KinaseProfiler) kinase panel

HIPK1 = target: T8, HIPK1 (Homo sapiens, UniProt Q86Z02); test: Kinase panel (Millipore); type: biochemical; conditions: 1 µM, ATP at Km
T8 construct: purchased Millipore (KinaseProfiler) kinase panel

FGFR2 = FGFR2 (Homo sapiens, UniProt P21802); test: Kinase panel (Millipore); type: biochemical; conditions: 1 µM, ATP at Km
CDK9/CYCLINT1 = CDK9/CYCLINT1 (Homo sapiens, UniProt P50750); conditions: 1 µM, ATP at Km
FLT3(D835Y) = FLT3(D835Y) (Homo sapiens, UniProt P36888, D835Y); conditions: 1 µM, ATP at Km
Ca2+ channel (N) = target: T9, Ca2+ channel (N) (Rattus norvegicus, UniProt Q02294); test: CEREP binding assay; conditions: antagonist radioligand, read-out: % Inhibition of Control Specific Binding
T9 construct: CEREP

MAO-A = target: T10, MAO-A (Rattus norvegicus, UniProt P21396); test: CEREP binding assay; conditions: antagonist radioligand, read-out: % Inhibition of Control Specific Binding
T10 construct: purchased Millipore (KinaseProfiler) kinase panel

SIK = target: T11, SIK (Homo sapiens, UniProt P57059); test: Kinase panel (Millipore); type: biochemical; conditions: 1 µM, ATP at Km
T11 construct: purchased Millipore (KinaseProfiler) kinase panel

JAK2 = target: T12, JAK2 (Homo sapiens, UniProt O60674); test: Kinase panel (Millipore); type: biochemical; conditions: 1 µM, ATP at Km
T12 construct: purchased Millipore (KinaseProfiler) kinase panel

5-HT2A (h) = 5-HT2A (h) (Homo sapiens, UniProt P28223); test: biochemical; conditions: read-out: % Inhibition of Control Specific Binding
5-HT2A (h), sequence (P28223 whole entry): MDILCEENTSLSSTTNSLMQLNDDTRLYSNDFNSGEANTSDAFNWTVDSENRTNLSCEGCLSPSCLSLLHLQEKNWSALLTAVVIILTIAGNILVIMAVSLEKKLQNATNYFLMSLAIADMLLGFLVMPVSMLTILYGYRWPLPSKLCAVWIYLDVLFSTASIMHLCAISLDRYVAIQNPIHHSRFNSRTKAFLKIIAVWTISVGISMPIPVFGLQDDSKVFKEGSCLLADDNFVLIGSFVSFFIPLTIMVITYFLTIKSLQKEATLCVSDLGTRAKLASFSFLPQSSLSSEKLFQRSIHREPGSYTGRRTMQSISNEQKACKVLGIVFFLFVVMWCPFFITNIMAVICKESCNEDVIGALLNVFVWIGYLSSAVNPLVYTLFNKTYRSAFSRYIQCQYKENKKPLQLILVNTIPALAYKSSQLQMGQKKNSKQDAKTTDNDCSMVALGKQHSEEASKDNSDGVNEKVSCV

FER = target: T13, FER (Homo sapiens, UniProt P16591); test: Kinase panel (Millipore); type: biochemical; conditions: 1 µM, ATP at Km
T13 construct: purchased Millipore (KinaseProfiler) kinase panel

EGFR = EGFR (Homo sapiens, UniProt P00533); test: Kinase panel (Millipore); type: biochemical; conditions: 1 µM, ATP at Km
EGFR, sequence (P00533 25-1210): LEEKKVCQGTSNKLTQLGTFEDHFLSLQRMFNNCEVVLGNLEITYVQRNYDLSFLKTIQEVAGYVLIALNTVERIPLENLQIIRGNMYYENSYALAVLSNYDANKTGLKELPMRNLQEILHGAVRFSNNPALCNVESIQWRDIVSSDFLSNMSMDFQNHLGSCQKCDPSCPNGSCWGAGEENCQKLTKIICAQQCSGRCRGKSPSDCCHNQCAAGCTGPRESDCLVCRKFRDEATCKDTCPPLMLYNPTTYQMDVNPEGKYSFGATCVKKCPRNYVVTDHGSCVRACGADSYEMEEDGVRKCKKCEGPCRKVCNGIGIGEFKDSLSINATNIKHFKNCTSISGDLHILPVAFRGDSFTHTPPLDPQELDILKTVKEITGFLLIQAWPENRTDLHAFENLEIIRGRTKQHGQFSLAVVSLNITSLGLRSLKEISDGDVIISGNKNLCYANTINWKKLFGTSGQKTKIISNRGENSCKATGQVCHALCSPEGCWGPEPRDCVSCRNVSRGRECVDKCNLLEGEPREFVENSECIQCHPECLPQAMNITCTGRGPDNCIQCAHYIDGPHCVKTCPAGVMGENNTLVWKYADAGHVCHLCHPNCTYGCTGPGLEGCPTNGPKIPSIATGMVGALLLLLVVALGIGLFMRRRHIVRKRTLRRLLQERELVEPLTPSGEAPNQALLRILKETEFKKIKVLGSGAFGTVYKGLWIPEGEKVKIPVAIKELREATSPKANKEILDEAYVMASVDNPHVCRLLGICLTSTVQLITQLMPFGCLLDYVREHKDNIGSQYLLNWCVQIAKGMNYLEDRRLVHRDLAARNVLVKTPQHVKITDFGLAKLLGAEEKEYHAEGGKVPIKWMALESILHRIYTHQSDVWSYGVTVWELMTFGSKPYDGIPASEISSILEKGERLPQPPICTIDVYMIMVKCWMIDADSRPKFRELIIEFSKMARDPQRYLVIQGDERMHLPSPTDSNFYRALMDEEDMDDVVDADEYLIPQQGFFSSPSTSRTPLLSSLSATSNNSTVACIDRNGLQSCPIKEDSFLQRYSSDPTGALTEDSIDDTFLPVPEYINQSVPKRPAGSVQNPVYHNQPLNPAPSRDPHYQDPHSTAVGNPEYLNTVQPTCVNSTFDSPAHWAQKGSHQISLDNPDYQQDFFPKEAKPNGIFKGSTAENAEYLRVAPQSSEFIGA

CKIT(D816V) = CKIT(D816V) (Homo sapiens, UniProt P10721, D816V); conditions: 1 µM, ATP at Km
MLCK = test: Kinase panel (Millipore); type: biochemical; conditions: 1 µM, ATP at Km
EPHA8 = target: T14, EPHA8 (Homo sapiens, UniProt P29322); test: Kinase panel (Millipore); type: biochemical; conditions: 1 µM, ATP at Km
T14 construct: purchased Millipore (KinaseProfiler) kinase panel

PDK1 = PDK1 (Homo sapiens, UniProt O15530); test: Kinase panel (Millipore); type: biochemical; conditions: 1 µM, ATP at Km
FGFR3 = target: T15, FGFR3 (Homo sapiens, UniProt P22607); test: Kinase panel (Millipore); type: biochemical; conditions: 1 µM, ATP at Km
T15 construct: purchased Millipore (KinaseProfiler) kinase panel

H3 (h) = target: T16, H3 (h) (Homo sapiens, UniProt Q9Y5N1); test: CEREP binding assay; conditions: agonist radioligand, read-out: % Inhibition of Control Specific Binding
T16 construct: purchased Millipore (KinaseProfiler) kinase panel
T16 sequence (Q9Y5N1 whole entry): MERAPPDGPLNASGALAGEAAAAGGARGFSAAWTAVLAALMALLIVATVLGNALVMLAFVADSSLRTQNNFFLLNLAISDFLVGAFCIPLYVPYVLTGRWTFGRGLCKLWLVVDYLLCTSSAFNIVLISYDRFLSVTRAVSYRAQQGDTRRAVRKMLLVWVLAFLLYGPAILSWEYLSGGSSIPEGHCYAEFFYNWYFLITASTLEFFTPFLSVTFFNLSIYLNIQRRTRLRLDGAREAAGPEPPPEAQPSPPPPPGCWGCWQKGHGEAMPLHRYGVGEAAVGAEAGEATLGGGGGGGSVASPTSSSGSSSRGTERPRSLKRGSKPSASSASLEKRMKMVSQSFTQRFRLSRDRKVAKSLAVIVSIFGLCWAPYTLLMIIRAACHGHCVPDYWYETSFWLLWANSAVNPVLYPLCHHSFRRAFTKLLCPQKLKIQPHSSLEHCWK

NEK11 = target: T17, NEK11 (Homo sapiens, UniProt Q8NG66); test: Kinase panel (Millipore); type: biochemical; conditions: 1 µM, ATP at Km
T17 construct: purchased Millipore (KinaseProfiler) kinase panel

MC3 (h) = target: T18, MC3 (h) (Homo sapiens, UniProt P41968); test: CEREP binding assay; conditions: agonist radioligand, read-out: % Inhibition of Control Specific Binding
T18 construct: purchased Millipore (KinaseProfiler) kinase panel

TAK1 = target: T19, TAK1 (Homo sapiens, UniProt O43318); test: Kinase panel (Millipore); type: biochemical; conditions: 1 µM, ATP at Km
T19 construct: purchased Millipore (KinaseProfiler) kinase panel
T19 sequence (O43318 1-303 limits assumed): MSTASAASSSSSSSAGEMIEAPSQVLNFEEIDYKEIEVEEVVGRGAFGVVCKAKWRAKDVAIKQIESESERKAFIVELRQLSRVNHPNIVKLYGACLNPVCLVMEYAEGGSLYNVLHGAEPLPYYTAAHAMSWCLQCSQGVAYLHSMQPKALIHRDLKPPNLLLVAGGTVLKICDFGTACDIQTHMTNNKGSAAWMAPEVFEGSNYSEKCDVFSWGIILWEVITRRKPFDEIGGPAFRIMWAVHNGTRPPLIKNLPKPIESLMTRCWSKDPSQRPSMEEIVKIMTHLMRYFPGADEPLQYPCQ

NMDA = conditions: 10 µM, antagonist radioligand
[2] = 120 min, pH 7.4
SRC(T341M) = SRC(T341M) (Homo sapiens, UniProt P12931, T341M); conditions: 1 µM, ATP at Km
CHK1 = CHK1 (Homo sapiens, UniProt O14757); test: Kinase panel (Millipore); type: biochemical; conditions: 1 µM, ATP at Km
GABAB(1b) (h) = GABAB(1b) (h) (Homo sapiens, UniProt Q9UBS5); test: biochemical; conditions: read-out: % Inhibition of Control Specific Binding
TIE2(R849W) = TIE2(R849W) (Homo sapiens, UniProt Q02763, R849W); conditions: 1 µM, ATP at Km
[3] = test system: APC-mutant SW620 human colorectal carcinoma xenograft

Cn1ncc2cc(-c3cnc(N)c(Cl)c3N3CCC4(CCNC4=O)CC3)ccc21 [Compound 109, 8-(2-Amino-3-chloro-5-(1-methyl-1H-indazol-5-yl)pyridin-4-yl)-2,8-diazaspiro[4.5]decan-1-one]
% effect (HIPK2): 2%
% effect (FYN): 23%
inhibition at 10 µM (ETB (h)): -23%
% Inhibition of Control Specific Binding [1]: 5%
% effect (PASK): -20%
% effect (MSK1): -3%
% effect (SGK2): -3%
% effect (EPHA5): -9%
% effect (PKBALPHA): 3%
% effect (EPHB1): 3%
% effect (MSSK1): -1%
% effect (HIPK1): 5%
% effect (FGFR2): 4%
% effect (CDK9/CYCLINT1): -8%
% effect (FLT3(D835Y)): 21%
inhibition at 10 µM (Ca2+ channel (N)): -12%
inhibition at 10 µM (MAO-A): 8%
% effect (SIK): -1%
% effect (JAK2): -20%
inhibition at 10 µM (5-HT2A (h)): -10%
% effect (FER): 15%
% effect (EGFR): 4%
% effect (CKIT(D816V)): -7%
% effect (MLCK): 3%
% effect (EPHA8): -9%
% effect (PDK1): 1%
% effect (FGFR3): -9%
inhibition at 10 µM (H3 (h)): 3%
% effect (NEK11): 12%
inhibition at 10 µM (MC3 (h)): -24%
% effect (TAK1): -14%
% Inhibition of Control Specific Binding (NMDA): 0%
Solubility Kinetic [2]: 137 µM (≈ 56.3 µg/mL)
% effect (SRC(T341M)): -8%
% effect (CHK1): -8%
inhibition at 10 µM (GABAB(1b) (h)): 2%
% effect (TIE2(R849W)): -9%
T/C (final tumor weights) ([3]; 30 mg/kg q.d. oral, P = 0.0241): 45.8
tolerability ([3]; 30 mg/kg q.d. schedule): well tolerated with no significant body weight loss
